This note sets out measurements from PubChem BioAssay AID1259407 (Chemical Carcinogenesis Research Information System (CCRIS), 2018).

In this data set the test system is CCRIS mutagenicity, Ames/micronucleus/aberration tests. The data set can be described thus: CCRIS mutagenicity studies.
[1] abbreviates: Test System: AMES SALMONELLA TYPHIMURIUM, Strain/Indicator: TA98, Metabolic Activation: NONE, Method: STANDARD PLATE.
[2] abbreviates: Test System: AMES SALMONELLA TYPHIMURIUM, Strain/Indicator: TA98, Metabolic Activation: RAT, LIVER, S-9, AROCLOR 1254, Method: STANDARD PLATE.
Setting [3] is: Test System: AMES SALMONELLA TYPHIMURIUM, Strain/Indicator: TA100, Metabolic Activation: NONE, Method: STANDARD PLATE.
[4] abbreviates: Test System: AMES SALMONELLA TYPHIMURIUM, Strain/Indicator: TA98, Metabolic Activation: NONE, Method: PREINCUBATION
Setting [5] is: Test System: AMES SALMONELLA TYPHIMURIUM, Strain/Indicator: TA100, Metabolic Activation: NONE, Method: PREINCUBATION
Setting [6] is: Test System: AMES SALMONELLA TYPHIMURIUM, Strain/Indicator: TA102, Metabolic Activation: NONE, Method: PREINCUBATION
[7] abbreviates: Test System: AMES SALMONELLA TYPHIMURIUM, Strain/Indicator: TA97, Metabolic Activation: NONE, Method: PREINCUBATION

Active and inactive are the calls of the source. No rule for the calls is given here.

For `O=C(O)/C=C(/CC(=O)O)C(=O)O`, the mutagenic call by setting is: under setting [1], “inactive; negative”; under setting [2], “inactive; negative”; under setting [3], “inactive; negative”; (Test System: AMES SALMONELLA TYPHIMURIUM, Strain/Indicator: TA100, Metabolic Activation: RAT, LIVER, S-9, AROCLOR 1254, Method: STANDARD PLATE) “inactive; negative”; (Test System: AMES SALMONELLA TYPHIMURIUM, Strain/Indicator: TA1535, Metabolic Activation: NONE, Method: STANDARD PLATE) “inactive; negative”; (Test System: AMES SALMONELLA TYPHIMURIUM, Strain/Indicator: TA1535, Metabolic Activation: RAT, LIVER, S-9, AROCLOR 1254, Method: STANDARD PLATE) “inactive; negative”. Besides, the mutagenic call runs as follows: (Test System: AMES SALMONELLA TYPHIMURIUM, Strain/Indicator: TA1537, Metabolic Activation: NONE, Method: STANDARD PLATE) “inactive; negative”; (Test System: AMES SALMONELLA TYPHIMURIUM, Strain/Indicator: TA1537, Metabolic Activation: RAT, LIVER, S-9, AROCLOR 1254, Method: STANDARD PLATE) “inactive; negative”.

Consider `Cc1ccc2nc3c(ccc4ccccc43)cc2c1`, for which the mutagenic call runs as follows: (Test System: AMES SALMONELLA TYPHIMURIUM, Strain/Indicator: TA97A, Metabolic Activation: NONE, Method: PREINCUBATION) “inactive; negative”; under setting [4], “inactive; negative”; under setting [5], “active; positive”; under setting [6], “active; positive”.

In the case of `CNC(=O)c1ccccc1`, the mutagenic call (Test System: AMES SALMONELLA TYPHIMURIUM, Strain/Indicator: TA97, Metabolic Activation: HAMSTER, LIVER, S-9, AROCLOR 1254 (10 OR 30%), Method: PREINCUBATION) is “inactive; negative”; the mutagenic call under setting [7] is “inactive; negative”; the mutagenic call (Test System: AMES SALMONELLA TYPHIMURIUM, Strain/Indicator: TA97, Metabolic Activation: RAT, LIVER, S-9, AROCLOR 1254 (10 OR 30%), Method: PREINCUBATION) is “inactive; negative”; the mutagenic call (Test System: AMES SALMONELLA TYPHIMURIUM, Strain/Indicator: TA98, Metabolic Activation: HAMSTER, LIVER, S-9, AROCLOR 1254 (10 OR 30%), Method: PREINCUBATION) is “inactive; negative”; the mutagenic call under setting [4] was “inactive; negative”; the mutagenic call (Test System: AMES SALMONELLA TYPHIMURIUM, Strain/Indicator: TA98, Metabolic Activation: RAT, LIVER, S-9, AROCLOR 1254 (10 OR 30%), Method: PREINCUBATION) was “inactive; negative”. Also, the mutagenic call reads like this: (Test System: AMES SALMONELLA TYPHIMURIUM, Strain/Indicator: TA100, Metabolic Activation: HAMSTER, LIVER, S-9, AROCLOR 1254 (10 OR 30%), Method: PREINCUBATION) “inactive; negative”; under setting [5], “inactive; negative”; (Test System: AMES SALMONELLA TYPHIMURIUM, Strain/Indicator: TA100, Metabolic Activation: RAT, LIVER, S-9, AROCLOR 1254 (10 OR 30%), Method: PREINCUBATION) “inactive; negative”; (Test System: AMES SALMONELLA TYPHIMURIUM, Strain/Indicator: TA1535, Metabolic Activation: HAMSTER, LIVER, S-9, AROCLOR 1254 (10 OR 30%), Method: PREINCUBATION) “inactive; negative”; (Test System: AMES SALMONELLA TYPHIMURIUM, Strain/Indicator: TA1535, Metabolic Activation: NONE, Method: PREINCUBATION) “inactive; negative”; (Test System: AMES SALMONELLA TYPHIMURIUM, Strain/Indicator: TA1535, Metabolic Activation: RAT, LIVER, S-9, AROCLOR 1254 (10 OR 30%), Method: PREINCUBATION) “inactive; negative”.

Turning to `COc1cc([N+](=O)[O-])ccc1N`, the mutagenic call runs as follows: under setting [1], “active; positive”; under setting [2], “active; positive”.

On to `Nc1c([N+](=O)[O-])cccc1[N+](=O)[O-]`, for which the mutagenic call is “active; positive” under setting [4]; “active; positive” (Test System: AMES SALMONELLA TYPHIMURIUM, Strain/Indicator: TA98, Metabolic Activation: RAT, LIVER, S-9, KANECHLOR 500, Method: PREINCUBATION); “active; positive” under setting [5]; “active; positive” (Test System: AMES SALMONELLA TYPHIMURIUM, Strain/Indicator: TA100, Metabolic Activation: RAT, LIVER, S-9, KANECHLOR 500, Method: PREINCUBATION).

`OC/C=C/Cl`: the mutagenic call under setting [3] was “inactive; negative” and the mutagenic call (Test System: AMES SALMONELLA TYPHIMURIUM, Strain/Indicator: TA100, Metabolic Activation: RAT, LIVER, S-9, PCB, Method: STANDARD PLATE) is “active; positive”.

Take `O=C(O)CN(CCN(CC(=O)O)Cc1ccccc1O)Cc1ccccc1O`: the mutagenic call by setting is: (Test System: Mouse lymphoma, Strain/Indicator: L5178Y (tk+/tk-), Metabolic Activation: None, Method: Suspension/plate) “active; positive”; (Test System: Mouse lymphoma, Strain/Indicator: L5178Y (tk+/tk-), Metabolic Activation: Rat, Liver, S-9, Aroclor 1254, Method: Suspension/plate) “active; positive”.

Consider `CCOC(=O)[C@H](CCc1ccccc1)N[C@@H](C)C(=O)N(CC(=O)O)C1Cc2ccccc2C1`, for which the mutagenic call is “inactive; negative” (Test System: AMES SALMONELLA TYPHIMURIUM, Strain/Indicator: TA98, Metabolic Activation: NONE); “inactive; negative” (Test System: AMES SALMONELLA TYPHIMURIUM, Strain/Indicator: TA98, Metabolic Activation: S-9); “inactive; negative” (Test System: AMES SALMONELLA TYPHIMURIUM, Strain/Indicator: TA100, Metabolic Activation: NONE); “inactive; negative” (Test System: AMES SALMONELLA TYPHIMURIUM, Strain/Indicator: TA100, Metabolic Activation: S-9); “inactive; negative” (Test System: AMES SALMONELLA TYPHIMURIUM, Strain/Indicator: TA1535, Metabolic Activation: NONE); “inactive; negative” (Test System: AMES SALMONELLA TYPHIMURIUM, Strain/Indicator: TA1535, Metabolic Activation: S-9). The mutagenic call by setting is: (Test System: AMES SALMONELLA TYPHIMURIUM, Strain/Indicator: TA1537, Metabolic Activation: NONE) “inactive; negative”; (Test System: AMES SALMONELLA TYPHIMURIUM, Strain/Indicator: TA1537, Metabolic Activation: S-9) “inactive; negative”; (Test System: E. COLI, Strain/Indicator: WP2 UVRA, Metabolic Activation: NONE) “inactive; negative”; (Test System: E. COLI, Strain/Indicator: WP2 UVRA, Metabolic Activation: S-9) “inactive; negative”.

With `C=Cc1c(C)c2[n-]c1=CC1=NC(=CC3=C(C)C(=C([O-])[O-])C(=N3)C(CC(=O)[O-])=C3N=C(C=2)C(C)C3CCC(=O)[O-])C(CC)=C1C.[Cu+2].[Na+].[Na+].[Na+]` (stereo unspecified), the mutagenic call was “inactive; negative” under setting [7]; “inactive; negative” (Test System: AMES SALMONELLA TYPHIMURIUM, Strain/Indicator: TA97, Metabolic Activation: S-9, Method: PREINCUBATION); “inactive; negative” under setting [6]; “inactive; negative” (Test System: AMES SALMONELLA TYPHIMURIUM, Strain/Indicator: TA102, Metabolic Activation: S-9, Method: PREINCUBATION); “inactive; negative” (Test System: CHINESE HAMSTER OVARY, Strain/Indicator: CHO-K1 (HGPRT)/6-THIOGUANINE).

As for `O=[N+]([O-])c1ccc2nc3cc([N+](=O)[O-])ccc3nc2c1`, the mutagenic call runs as follows: (Test System: AMES SALMONELLA TYPHIMURIUM, Strain/Indicator: TA98(NR), Metabolic Activation: NONE, Method: PREINCUBATION) “active; positive”; under setting [4], “active; positive”.
